According to patent publication US7973011B2, “Blockade of gamma-secretase activity to promote myelination by oligodendrocytes” (The Board of Trustees of the Leland Stanford Junior …, priority 2006, dated 2011):
“Also recorded” adds a separate entry of the source. Read-outs that look alike come from different tables or passages of the source.

Experiments:
γ-secretase [1] = molecular target: T1, γ-secretase (Homo sapiens, UniProt P49768); settings: read-out: Cell-free; cited from earlier work
γ-secretase active site = γ-secretase active site (Homo sapiens, UniProt P49768); settings: cited from earlier work
γ-secretase [2] = molecular target: T1, γ-secretase; settings: read-out: In cells; cited from earlier work
PS-2 = PS-2 (Homo sapiens, UniProt P49810); settings: cited from earlier work
[3] = test system: Notch1f/f OPCs on RGC reaggregates; experiment: Myelination by floxxed Notch1 OPCs (AdCre/AdEmpty) cocultured with RGC reaggregates; assay type: cell-based, mouse; settings: 1 μM DAPT, six days of coculture, with or without glial Notch1
Protocol: FIG. 5. […] (A-C) Infection of OPCs from floxxed Notch1 mice (Notch1^f/f) with a recombinant adenovirus for expression of Cre recombinase (AdCre) results in rapid reduction of Notch1 protein. Notch1^f/f-OPCs, purified by immunopanning with anti-PDGFRα, were cultured for 2 days prior to infection for 24 hours with AdCre or a control virus (AdEmpty) at a multiplicity of infection of 10. The next day, cells were re-plated on RGC reaggregate cultures and on coverslips for analysis of Notch1 knockout, which was assessed by immunostaining (a,b) and Western blot analysis 24 hours later (c).
Conditional knockout cells and infection with AdCre. OPCs were purified from P9 Notch1 conditional knockout (gift of A. Rosenthal, Genentech) and presenilin double conditional knockout (gift of Jie Shen, Brigham and Women's hospital) mouse brains by a slight modification of the panning protocol for rat cells as described previously. The first panning dish was coated with mouse anti-mouse Thy1.2 (Serotec) rather than Ran-2. Mouse OPCs were plated on PDL-coated flasks in defined proliferation medium (DMEM supplemented with B27, insulin, 10 ng/ml PDGF, 1 ng/ml NT3, 10 ng/ml CNTF, and forskolin) for 2 days and then passaged onto PDL-coated tissue culture plates at a density of 1 million cells per plate. […]

[4] = test system: oligodendrocytes in OPC-RGC reaggregate cocultures; experiment: OPC-RGC reaggregate coculture myelination (MBP/NG2 immunostaining); assay type: cell-based, rat
Protocol: Purification of RGCs. Retinal ganglion cells (RGCs) were purified to >99.5% homogeneity from two- to three-litters of 5-day-old (P5) rat retinae by immunopanning as previously described. Briefly, retinae were digested with papain at 37° C. Following gentle trituration, cells were resuspended in a panning buffer containing insulin (5 μg/ml) and then incubated at room temperature with rabbit anti-macrophage antibodies. Retinal cells were incubated at room temperature sequentially on three immunopanning dishes: two coated with anti-rabbit secondary antibodies (to negatively select macrophages) and the third with T11D7 anti-Thy1 mAb. RGCs were released from the final panning dish with trypsin (Sigma).
To produce reaggregates, RGCs were plated at high density (>1,000 cells/μl) in 400 μl RGC growth medium in wells an 8-well chamber-slide (Nunc) coated with a surface that is not strongly adherent for RGCs (Permanox). One- to three-hours after plating, RGCs were resuspended gently to promote interaction and reaggregation, and this was repeated the following day. Following two days of culture at high density, reaggregates were collected and allowed to settle to separate them from dead RGCs, non-aggregated cells, and small reaggregates (<10 cells). […]

[5] = test system: dorsal root ganglion (DRG) neurons and oligodendrocytes; experiment: Myelination of dorsal root ganglion neurons by oligodendrocytes; assay type: cell-based
PS-1 = PS-1 (Homo sapiens, UniProt P49768); settings: cited from earlier work
gamma-secretase = gamma-secretase (Homo sapiens, UniProt P49768); settings: recombinant APP C100 substrate; cited from earlier work

Row | Molecule | IC50 (γ-secretase [1]) | Displacement (γ-secretase active site) | IC50 (γ-secretase [2]) | also measured
1 | C[C@@H](NC(=O)Cc1cc(F)cc(F)c1)C(=O)N[C@H]1N=C(c2ccccc2)c2ccccc2N(C)C1=O [Compound E] | 3 nM | YES | 0.3 nM | 
2 | C[C@H](NC(=O)Cc1cc(F)cc(F)c1)C(=O)N[C@H](C(=O)OC(C)(C)C)c1ccccc1 [DAPT] | 10 nM | YES | 20 nM | inhibition of PS-2 (PS-2): inhibits; myelination (proportion of cells that myelinate) [3]: enhances myelination either in the presence (AdEmpty) or absence (AdCre) of glial Notch1; competition for the γ-secretase active site in a displacement assay (γ-secretase active site): can compete moderately; proportion of MBP+ oligodendrocytes that formed myelin segments ([4]; 1 μM DAPT, six-day cocultures): significantly increased; also recorded: the majority of oligodendrocytes myelinate; proportion of NG2+ OPCs or MBP+ oligodendrocytes ([4]; cocultures with DAPT): did not consistently alter; myelination of DRG neurons by oligodendrocytes [5]: profoundly enhanced myelination; inhibition of PS-1 (PS-1): inhibits
3 | CCC(C)C(NC(=O)C(CCCCNC(=O)OC(C)(C)C)NC(=O)OC(C)(C)C)C(=O)NC(CC(C)C)C1CO1 (stereo not drawn) [Epoxide] | 20000 nM |  | 20000 nM | 
4 | COC(=O)[C@@H](NC(=O)[C@H](CC(C)C)NC(=O)N(Cc1ccccc1)C[C@@H](O)[C@H](Cc1ccccc1)NC(=O)OC(C)(C)C)C(C)C [III-31-C] | 10 nM | YES | 200 nM | 
5 | CSc1ccc(/C=C2/C(C)=C(CC(=O)O)c3cc(F)ccc32)cc1 [Sulindac sulfide] |  |  |  | inhibition of gamma(42)-secretase activity (gamma-secretase): preferentially inhibits
6 | (Z-LL)2-ketone | 30000 nM | YES | > 100000 nM | 
7 | Boc-D-Val-Gly-Aib-D-Val-D-Val-D-He-Aib-D-Thr(OBn)-D-Val-Aib-OMe [D-Helical peptide 294] | 100 nM |  | 3000 nM | 
